Bounds are passed on as bounds.

Common to all, as to type: biochemical
The target of assay [1] is T1, MMP-3 (Homo sapiens, UniProt P08254).
T1 construct: Truncated Prostromelysin-257 was expressed in a soluble form in E.coli; made in house; host or cells: E. coli
The assay is described as follows: Automated MMP Profiling Assay, MMP-3 fluorogenic. The note with it: for IC50: 96-well automated, P218. The text has this:
This assay with each invention compound was run with the three enzymes MMP-3, MMP-9 and MMP-2 in parallel as adapted for a 96-well microtitre plate using a Hamilton A® workstation.

The target of assay [2] is T2, MMP-9 (Homo sapiens, UniProt P14780).
T2 construct: from tissue; host or cells: human polymorphonuclear leukocytes (PMN) from whole blood (New York Blood Center), PMA-stimulated supernatant
T2 sequence (P14780 107-707 limits assumed): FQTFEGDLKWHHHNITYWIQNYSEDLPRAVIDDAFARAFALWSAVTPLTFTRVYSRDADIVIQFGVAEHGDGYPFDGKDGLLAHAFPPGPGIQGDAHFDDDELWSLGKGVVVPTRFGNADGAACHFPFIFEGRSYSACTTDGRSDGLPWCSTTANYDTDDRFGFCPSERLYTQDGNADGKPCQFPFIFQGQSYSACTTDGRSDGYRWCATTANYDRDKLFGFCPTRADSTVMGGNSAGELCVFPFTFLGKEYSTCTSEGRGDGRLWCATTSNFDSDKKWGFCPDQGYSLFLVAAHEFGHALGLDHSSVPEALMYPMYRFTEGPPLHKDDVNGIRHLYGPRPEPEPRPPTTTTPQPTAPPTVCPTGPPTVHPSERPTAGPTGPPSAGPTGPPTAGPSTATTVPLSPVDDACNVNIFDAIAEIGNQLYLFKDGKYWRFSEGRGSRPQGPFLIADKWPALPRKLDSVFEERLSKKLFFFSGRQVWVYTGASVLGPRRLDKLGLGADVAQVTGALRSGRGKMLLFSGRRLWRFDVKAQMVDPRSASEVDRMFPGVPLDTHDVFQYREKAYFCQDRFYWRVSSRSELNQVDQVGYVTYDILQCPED
As to the kind of experiment: Automated MMP Profiling Assay, MMP-9 fluorogenic. The note with it: for IC50: 96-well automated, P218. Here is the method: Briefly, polymorphonuclear leukocytes (PMN) preparations were isolated as described above from 3 or more units of freshly drawn whole blood obtained from the New York Blood Center (New York, N.Y.). Cells were resuspended in phosphate buffered saline (PBS) containing 100 ng/ml phorbol myristate acetate (PMA) in the presence of 50 mM diisopropylfluorophospate (DFP), 1 μg/ml leupeptin and aprotinin, and 1 mg/ml catalase for 1 hr at 37° C. Supernatants were collected by centrifugation (300×g) and the samples were frozen at -70° C. All chromatographic methods were performed at 4° C. Thawed samples were concentrated 5-fold using an Amicon chamber equipped with a YM-10 membrane. The concentrate was pressure dialyzed against 0.02M Tris-HCl, 0.1M NaCl, 1 mM CaCl2, 1 μM ZnCl2, 0.001% Brij-35, 0.02% sodium azide (NaN3), pH 7.5 and applied to DEAE ion exchange chromatography resin which was previously equilibrated with the same buffer at a flow rate of 0.4 ml/min. The column was extensively washed with the same buffer and gelatinase was eluted as 4 ml fractions from the column with 0.02M Tris-HCl, 0.5M NaCl, 1 mM CaCl2, 1 μM ZnCl2, 0.001% Brij-35, 0.02% NaN3, pH 7.5. Gelatinase containing fractions were observed by gelatin zymography (see below), loaded onto a gelatin agarose affinity resin and washed with the same buffer. Gelatinase activity was eluted at a flow rate of 1 ml/min from the column as 1 ml fractions with 0.02M Tris-HCl, 1M NaCl, 1 mM CaCl2, 1 μM ZnCl2, 0.001% Brij-35, 0.02% NaN3, pH 7.5 containing 10% dimethyl sulfoxide (DMSO). The fractions containing gelatinase activity were pooled and dialyzed against 0.005M Tris-HCl, 5 mM NaCl, 0.5 mM CaCl2, 0.1 μM ZnCl2, 0.001% Brij-35, pH 7.4. The protein content associated with material was determined with a micro-BCA assay (Pierce, Rockford, Ill.), lyophilized and reconstituted to a desired working concentration (100 μg/ml).
This assay was run with a protocol analogous to that reported for MMP-3 inhibition using the synthetic peptide P218 and each of the three enzymes and measuring quenched fluorescence. This assay with each invention compound was run with the three enzymes MMP-3, MMP-9 and MMP-2 in parallel as adapted for a 96-well microtitre plate using a Hamilton A® workstation.

The target in assay [3] is T3, MMP-2 (Homo sapiens, UniProt P08253).
T3 sequence (P08253 110-660): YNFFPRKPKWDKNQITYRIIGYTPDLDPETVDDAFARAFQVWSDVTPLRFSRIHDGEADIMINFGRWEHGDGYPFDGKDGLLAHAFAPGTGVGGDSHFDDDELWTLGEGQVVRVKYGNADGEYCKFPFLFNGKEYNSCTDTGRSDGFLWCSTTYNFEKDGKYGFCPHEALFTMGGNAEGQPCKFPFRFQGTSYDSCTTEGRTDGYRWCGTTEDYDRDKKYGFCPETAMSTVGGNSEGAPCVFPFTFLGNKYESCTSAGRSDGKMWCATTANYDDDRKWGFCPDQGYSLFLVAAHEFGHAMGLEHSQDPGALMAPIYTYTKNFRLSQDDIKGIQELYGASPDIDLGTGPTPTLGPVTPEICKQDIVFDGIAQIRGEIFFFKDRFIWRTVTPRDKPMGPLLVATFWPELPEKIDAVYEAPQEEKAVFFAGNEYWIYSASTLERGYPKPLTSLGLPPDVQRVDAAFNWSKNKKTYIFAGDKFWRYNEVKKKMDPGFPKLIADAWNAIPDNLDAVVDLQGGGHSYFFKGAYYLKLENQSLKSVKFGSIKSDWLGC
As to the kind of experiment: Automated MMP Profiling Assay, MMP-2 fluorogenic. The note with it: for IC50: 96-well automated, P218, read-out: MMP-2 Fluorogenic IC50 (profiling).

T1 sequence (P08254 100-274 limits assumed): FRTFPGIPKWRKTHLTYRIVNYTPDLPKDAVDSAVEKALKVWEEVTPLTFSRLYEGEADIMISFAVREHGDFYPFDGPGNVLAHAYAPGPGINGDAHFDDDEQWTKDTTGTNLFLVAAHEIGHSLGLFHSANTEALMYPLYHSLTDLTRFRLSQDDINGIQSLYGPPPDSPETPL

For the compound `COc1cccc2c1C(=O)N(CCC(CC(=O)c1ccc(-c3ccc(Cl)cc3)cc1)C(=O)O)C2=O` (stereo not drawn) [Example 423, 2H-Isoindole-2-butanoic acid, α-[2-(4'chloro[1,1'-biphenyl]-4-yl)-2-oxoethyl]-1,3-dihydro-4-methoxy-1,3-dioxo-], the figures for the IC50 in assay [1], in assay [2] and in assay [3] were 19 nM, 6.1 nM and 15 nM, respectively.

With `CC(C)(C)c1ccc2c(c1)C(=O)N(CCC(CC(=O)c1ccc(-c3ccc(Cl)cc3)cc1)C(=O)O)C2=O` (stereo not drawn) [Example 414, 2H-Isoindole-2-butanoic acid, α-[2-(4'-chloro[1,1'-biphenyl]-4-yl)-2-oxoethyl]-5-(1,1-dimethylethyl)-1,3-dihydro-1,3-dioxo-], the IC50 in assay [1] worked out at 37 nM; in assay [2] it was 15 nM; in assay [3] it was 79 nM.

With `O=C(CC(CC[S+]([O-])c1ccccc1)C(=O)O)c1ccc(-c2ccc(Cl)cc2)cc1` (stereo not drawn) [Example 428, [1,1'-Biphenyl]-4-butanoic acid, 4'-chloro-γ-oxo-α-[2-(phenylsulfinyl)ethyl]-], the values for the IC50 in assay [1], in assay [2] and in assay [3] were 53 nM, 119 nM and 16 nM, respectively.

On to `CC(=O)O[C@H]1C[C@H](C(=O)c2ccc(-c3ccc(Cl)cc3)cc2)[C@H]1C(=O)O` (relative stereo) [Example 395, Cyclobutanecarboxylic acid, 2-(acetyloxy)-4-[(4'-chloro[1,1'-biphenyl]-4-yl)carbonyl]-, (1α,2α,4β)-], for which the IC50 in assay [1] worked out at 2200 nM; in assay [3], 560 nM. Further, in assay [2], 5 µM produced 44% inhibition.

In the case of `CCOc1ccc(-c2ccc(C(=O)CC(CCc3ccccc3)C(=O)O)cc2)cc1` (stereo not drawn) [Example 156, [1,1'-Biphenyl]-4-butanoic acid, 4'-ethoxy-γ-oxo-α-(2-phenylethyl)-], the values for the IC50 in assay [1], in assay [2] and in assay [3] were 126 nM, 145 nM and 21 nM, respectively.

`O=C(CC(CCCc1ccccc1)C(=O)O)c1ccc(-c2ccc(OCc3ccccn3)cc2)cc1` (stereo not drawn) [Example 110, [1,1'-Biphenyl]-4-butanoic acid, γ-oxo-α-(3-phenylpropyl)-4'-(2-pyridinylmethoxy)-]: the IC50 in assay [1] is 37 nM; in assay [3] it was 38 nM. In assay [2], this compound came in with an inhibition at 5 µM of 26%.

Take `Cc1ccc2c(c1)C(=O)N(CCC(CC(=O)c1ccc(-c3ccc(Cl)cc3)cc1)C(=O)O)C2=O` (stereo not drawn) [Example 416, 2H-Isoindole-2-butanoic acid, α[2-(4'-chloro[1,1'-biphenyl]-4-yl)-2-oxoethyl]-1,3-dihydro-5-methyl-1,3-dioxo-]: the IC50 was determined as 9.5 nM in assay [1], 2.5 nM in assay [2] and 23 nM in assay [3].

On to `CCCCCOc1ccc(-c2ccc(C(=O)[C@H]3CC[C@@H](Cc4ccccc4)[C@@H]3C(=O)O)cc2)cc1` [Example 324, Cyclopentanecarboxylic acid, 2-[[4'-(pentyloxy)[1,1'-biphenyl]-4-yl]carbonyl]-5-(phenylmethyl)-, [1S-(1α,2β,5β)]-], for which the IC50 in assay [1] came out at 46 nM; in assay [2], 343 nM; in assay [3] it was 8.1 nM.

As to `Cc1ccc(/C=C/[C@@H]2CC[C@H](C(=O)c3ccc(-c4ccc(Cl)cc4)cc3)[C@H]2C(=O)O)cc1` (relative stereo) [Example 363, Cyclopentanecarboxylic acid, 2-[(4'-chloro[1,1'-biphenyl]-4-yl)carbonyl]-5-[2-(4-methylphenyl)ethenyl]-, [1α,2β,5β(E)]-], the IC50 was 5000 nM in assay [1] and below 5000 nM in assay [3]. Further, in assay [2], the inhibition at 5 µM came to 37%.

For `CCCCCCOc1ccc(-c2ccc(C(=O)CC(CCc3ccccc3)C(=O)O)cc2)cc1` (stereo not drawn) [Example 159, [1,1'-Biphenyl]-4-butanoic acid, 4'-(hexyloxy)-γ-oxo-α-(2-phenylethyl)-], the IC50 was 116 nM in assay [1], above 1250 nM in assay [2] and 42 nM in assay [3].

For the compound `O=C(O)C1=CCCC1C(=O)c1ccc(-c2ccc(Cl)cc2)cc1` (stereo not drawn) [Example 439, 1-Cyclopentene-1-carboxylic acid, 5-[(4'-chloro[1,1'-biphenyl]-4-yl)carbonyl]-], the inhibition at 5 µM in assay [1] is 0%; in assay [2], 3%; in assay [3] (at 5 μM), 24%.

Turning to `Cc1ccc(C(=O)OC[C@@H]2CC[C@H](C(=O)c3ccc(-c4ccc(Cl)cc4)cc3)[C@H]2C(=O)O)cc1` (relative stereo) [Example 380, Benzoic acid, 4-methyl-, [2-carboxy-3-[(4'-chloro[1,1'-biphenyl]-4-yl)carbonyl]cyclopentyl]methyl ester, (1α,2β,3α)-], the IC50 in assay [1] was 46 nM; in assay [2] it was 40 nM; in assay [3], 69 nM.

On to `O=C(CC(CCN1C(=O)c2cccc(OCc3ccccc3)c2C1=O)C(=O)O)c1ccc(-c2ccc(Cl)cc2)cc1` (stereo not drawn) [Example 407, 2H-Isoindole-2-butanoic acid, α-[2-(4'-chloro[1,1'-biphenyl]-4-yl)-2-oxoethyl]-1,3-dihydro-1,3-dioxo-4-(phenylmethoxy)-], for which the results for the IC50 in assay [1], in assay [2] and in assay [3] were 69 nM, 36 nM and 39 nM, respectively.

On to `COc1cc(CCC(CC(=O)c2ccc(-c3ccc(Cl)cc3)cc2)C(=O)O)cc(OC)c1` (stereo not drawn) [Example 129, [1,1'-Biphenyl]-4-butanoic acid, 4'-chloro-α-[2-(3,5-dimethoxyphenyl)ethyl]-γ-oxo-], for which the IC50 stood at 237 nM in assay [1], 771 nM in assay [2] and 89 nM in assay [3].

For `O=C(CC(CCc1cccc(I)c1)C(=O)O)c1ccc(-c2ccc(OCc3ccccc3)cc2)cc1` (stereo not drawn) [Example 163, [1,1'-Biphenyl]-4-butanoic acid, α-[2-(3-iodophenyl)ethyl]-γ-oxo-4'-(phenylmethoxy)-], the IC50 in assay [1] was 64 nM; in assay [3], 17 nM. The same compound showed an inhibition at 5 µM in assay [2] of 18%.

Take `O=C(CC(CCCc1ccccc1)C(=O)O)c1ccc(-c2ccc(CCc3ccccc3)cc2)cc1` (stereo not drawn) [Example 359, [1,1'-Biphenyl]-4-butanoic acid, 4'-γ-oxo-4'-(2-phenylethyl)-α-(3-phenylpropyl)-]: the IC50 in assay [1] came out at 83 nM; in assay [3], 51 nM. In assay [2], this compound showed an inhibition at 5 µM of 16%.

Turning to `O=C(O)[C@H]1CN(C(=O)OCc2ccccc2)C[C@@H]1C(=O)c1ccc(-c2ccc(Cl)cc2)cc1` (relative stereo) [Example 174, 1,3-Pyrrolidinecarboxylic acid, 4-[(4'-chloro[1,1'-biphenyl]-4-yl)carbonyl]-1,-(phenylmethyl) ester, trans-], the figures for the IC50 in assay [1], in assay [2] and in assay [3] were 144 nM, 522 nM and 56 nM, respectively.

On to `CCCCCOc1ccc(-c2ccc(C(=O)[C@@H]3CC[C@H](Cc4ccccc4)[C@H]3C(=O)O)cc2)cc1` [Example 325, Cyclopentanecarboxylic acid, 2-[[4'-(pentyloxy)[1,1'-biphenyl]-4-yl]carbonyl]-5-(phenylmethyl)-, [1R-(1α,2β,5β)]-], for which the inhibition at 5 µM in assay [1] turned out to be 10%; in assay [2], 0%. Besides, in assay [3], the IC50 worked out at 4400 nM.

For `CCN(CC)C(=O)c1ccc(CCC(CC(=O)c2ccc(-c3ccc(Cl)cc3)cc2)C(=O)O)cc1` (stereo not drawn) [Example 151, [1,1'-Biphenyl]-4-butanoic acid, 4'-chloro-α-[2-[4-[(diethylamino)carbonyl]phenyl]ethyl]-γ-oxo-], the IC50 turned out to be 371 nM in assay [1], 607 nM in assay [2] and 70 nM in assay [3].

These data come from patent publication US5789434A, “Derivatives of substituted 4-biarylbutyric acid as matrix metalloprotease inhibitors” (priority 1995, dated 1998).
